Legend:
ST3O = biological target: T1, ST3O (Sus scrofa, UniProt Q02745); assay: Acceptor specificity of ST3O in COS-1 media
T1 sequence (Q02745 28-343 limits assumed): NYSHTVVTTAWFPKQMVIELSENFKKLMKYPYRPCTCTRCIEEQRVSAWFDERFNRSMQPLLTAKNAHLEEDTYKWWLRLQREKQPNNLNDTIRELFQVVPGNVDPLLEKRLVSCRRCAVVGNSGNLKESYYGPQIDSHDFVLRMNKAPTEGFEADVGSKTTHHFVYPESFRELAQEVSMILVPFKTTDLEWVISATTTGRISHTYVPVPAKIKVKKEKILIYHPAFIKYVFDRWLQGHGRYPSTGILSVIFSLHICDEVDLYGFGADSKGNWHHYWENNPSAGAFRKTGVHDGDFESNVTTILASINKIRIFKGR

ST3 = biological target: T2, ST3 (Homo sapiens, UniProt Q11206); assay: Acceptor specificity of soluble ST3 (AZ3) in COS-1 media; details: for sialic acid incorporation by ST3 enzyme: data not shown
T2 sequence (Q11206 1-332 isoform Q11206-2): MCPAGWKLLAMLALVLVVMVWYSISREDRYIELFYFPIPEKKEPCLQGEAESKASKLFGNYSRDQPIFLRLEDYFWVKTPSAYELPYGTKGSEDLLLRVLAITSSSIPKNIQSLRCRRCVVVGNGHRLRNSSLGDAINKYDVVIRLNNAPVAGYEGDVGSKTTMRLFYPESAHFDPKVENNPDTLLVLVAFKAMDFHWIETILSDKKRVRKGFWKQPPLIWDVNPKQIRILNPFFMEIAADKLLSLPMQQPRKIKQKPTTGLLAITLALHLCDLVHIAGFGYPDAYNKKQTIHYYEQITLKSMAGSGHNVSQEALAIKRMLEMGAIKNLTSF

ST3N = assay: Acceptor specificity of ST3N in COS-1 media
porcine ST3O = biological target: T3, porcine ST3O (Sus scrofa, UniProt Q02745); assay: Acceptor specificity of recombinant porcine ST3O; assay type: biochemical; details: acceptor 0.2 mM
T3 sequence (Q02745 28-343 limits assumed): T1 sequence (Q02745 28-343 limits assumed)

human ST3O = biological target: T4, human ST3O (Homo sapiens, UniProt Q11201); assay: Acceptor specificity of soluble human ST3O; assay type: biochemical; details: acceptor 0.2 mM
T4 construct: lacked the first 44 amino acids of the open reading frame; made in house; host or cells: COS-1 cells (transient, culture medium)
T4 sequence (Q11201 45-340): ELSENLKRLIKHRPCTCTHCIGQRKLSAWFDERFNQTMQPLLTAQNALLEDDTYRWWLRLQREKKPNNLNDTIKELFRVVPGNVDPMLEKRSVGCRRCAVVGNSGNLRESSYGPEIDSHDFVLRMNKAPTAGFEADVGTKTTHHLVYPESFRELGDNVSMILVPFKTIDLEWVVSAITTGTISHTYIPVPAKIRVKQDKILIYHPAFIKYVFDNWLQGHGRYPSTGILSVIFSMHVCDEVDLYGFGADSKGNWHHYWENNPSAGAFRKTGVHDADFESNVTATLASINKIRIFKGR

rat ST3N = assay: Acceptor specificity of soluble rat ST3N fusion protein; details: acceptor 0.2 mM; relative to LNT
human ST3N = biological target: T5, human ST3N (Homo sapiens, UniProt Q11203); assay: Acceptor specificity of soluble human ST3N fusion protein; details: acceptor 0.2 mM; relative to LNT
T5 sequence (Q11203 62-375): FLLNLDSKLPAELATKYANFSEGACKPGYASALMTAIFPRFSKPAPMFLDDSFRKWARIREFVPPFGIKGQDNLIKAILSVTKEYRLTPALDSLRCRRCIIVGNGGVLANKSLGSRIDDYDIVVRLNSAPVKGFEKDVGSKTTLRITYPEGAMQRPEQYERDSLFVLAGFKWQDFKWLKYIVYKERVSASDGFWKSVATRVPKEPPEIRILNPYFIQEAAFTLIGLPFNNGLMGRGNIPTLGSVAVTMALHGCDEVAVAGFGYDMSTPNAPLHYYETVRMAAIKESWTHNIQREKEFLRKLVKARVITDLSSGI

α2,3-N sialyltransferase = biological target: T6, α2,3-N sialyltransferase (Rattus norvegicus, UniProt Q02734); assay: Acceptor use by soluble α2,3-N sialyltransferase secreted from COS-1 cells (pBD122); assay type: biochemical; details: concentrated COS-1 media
T6 construct: made in house; host or cells: COS-1 cells (transient, culture medium)
T6 sequence (Q02734 29-374 limits assumed): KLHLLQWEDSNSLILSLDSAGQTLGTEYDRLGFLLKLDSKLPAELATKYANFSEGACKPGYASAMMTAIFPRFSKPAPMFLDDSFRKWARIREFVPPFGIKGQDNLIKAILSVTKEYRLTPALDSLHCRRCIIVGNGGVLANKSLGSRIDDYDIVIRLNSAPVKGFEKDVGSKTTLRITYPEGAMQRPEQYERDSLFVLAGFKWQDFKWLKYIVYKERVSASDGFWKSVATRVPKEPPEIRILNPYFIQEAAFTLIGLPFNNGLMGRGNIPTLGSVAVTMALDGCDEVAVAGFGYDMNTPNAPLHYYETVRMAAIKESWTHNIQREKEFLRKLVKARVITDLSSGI

Relative rate (%) ST3O (ST3O; acceptor 2.0 mM) | Relative rate (%) ST3 (ST3; acceptor 2.0 mM) | Compound | Relative rate (%) ST3O (ST3O; acceptor 0.2 mM) | Relative rate (%) ST3N (ST3N; acceptor 0.2 mM) | Relative rate (%) ST3 (ST3; acceptor 0.2 mM) | other results
0% | 0% | CC(=O)N[C@H]1[C@H](O[C@H]2[C@@H](O)[C@@H](CO)O[C@@H](O[C@H]3[C@H](O)[C@@H](O)C(O)O[C@@H]3CO)[C@@H]2O)O[C@H](CO)[C@@H](O[C@@H]2O[C@@H](C)[C@@H](O)[C@@H](O)[C@@H]2O)[C@@H]1O[C@@H]1O[C@H](CO)[C@H](O)[C@H](O)[C@H]1O (stereo partly drawn) [Galβ1,3(Fucα1,4)GlcNAcβ1,3Galβ1,4Glc] | 0% | 0% | – | Relative rate (%) ST3N (ST3N; acceptor 2.0 mM): 0%
100% | 100% | CC(=O)N[C@H]1C(O)O[C@H](CO)[C@H](O)[C@@H]1O[C@@H]1O[C@H](CO)[C@H](O)[C@H](O)[C@H]1O (stereo partly drawn) [Galβ1,3GalNAc] | 100% | – | 100% | Relative Activity (%) Porcine (porcine ST3O): 100%; Relative Activity (%) Human (human ST3O): 100%
– | – | CC(=O)N[C@H]1C(O)O[C@H](CO)[C@@H](O)[C@@H]1O[C@@H]1O[C@H](CO)[C@H](O)[C@H](O)[C@H]1O (stereo partly drawn) [Galβ1,3GlcNAc] | 2% | – | 0% | –
0% | 1% | CC(=O)N[C@H]1[C@H](O[C@H]2[C@@H](O)[C@@H](CO)O[C@@H](O[C@H]3[C@H](O)[C@@H](O)C(O)O[C@@H]3CO)[C@@H]2O)O[C@H](CO)[C@@H](O[C@@H]2O[C@H](CO)[C@H](O)[C@H](O)[C@H]2O)[C@@H]1O[C@@H]1O[C@@H](C)[C@@H](O)[C@@H](O)[C@@H]1O (stereo partly drawn) [Galβ1,4(Fucα1,3)GlcNAcβ1,3Galβ1,4Glc] | 0% | 0% | 0.1% | Relative rate (%) ST3N (ST3N; acceptor 2.0 mM): 0%
0.9% | 23% | CC(=O)N[C@H]1C(O)O[C@H](CO)[C@@H](O[C@@H]2O[C@H](CO)[C@H](O)[C@H](O)[C@H]2O)[C@@H]1O (stereo partly drawn) [Galβ1,4GlcNAc] | 0% | – | 4% | Relative Activity (%) Porcine (porcine ST3O): 0%; Relative Activity (%) Human (human ST3O): 0%
– | – | .varies.1 -acid glycoprotein: intact glycoprotein examined as acceptor | – | – | – | sialic acid incorporation by ST3 enzyme (ST3): not any significant amount of sialic acid incorporated
– | – | Asialo-α1 -acid glycoprotein: glycoprotein acceptor (Galβ1,4GlcNAc-R) | 0% | – | 51% | use as acceptor by secreted enzyme (α2,3-N sialyltransferase): capable of sialylating
– | – | Asialofetuin: glycoprotein acceptor (Galβ1,3GalNAc-Thr/Ser and Galβ1,4GlcNAc-R) | 26% | – | 92% | –
– | – | GalNAcβ1,4(NeuAcα2-3)Galβ1,4Glcβ1-Cer [GM2] | 0.3% | 0% | – | –
– | – | GalNAcβ1,4Galβ1,4Glcβ1-Cer [Asialo-GM2] | 0.5% | 0% | 2% | –
– | – | Galβ1,3GalNAcβ1,4(NeuAcα2-3)Galβ1,4Glcβ1-Cer [GM1] | 47% | 0% | 27% | Relative Activity (%) Porcine (porcine ST3O): 44%; Relative Activity (%) Human (human ST3O): 41%
– | – | Galβ1,3GalNAcβ1,4Galβ1,4Glcβ,1-Cer [Asialo-GM1] | 88% | 8% | 64% | Relative Activity (%) Porcine (porcine ST3O): 85%; Relative Activity (%) Human (human ST3O): 84%
– | – | Galβ1,4Glcβ1-Cer [LacCer] | 0.1% | 0% | 4% | –
– | – | NeuAcα2,3Galβ1,4Glcβ1-Cer [GM3] | 0.1% | 0% | 0% | –
– | – | intact fetuin: glycoprotein examined as acceptor | – | – | – | sialic acid incorporation by ST3 enzyme (ST3): not any significant amount of sialic acid incorporated

Compound | Relative rate (%) ST3O (ST3O; acceptor 2.0 mM) | Relative rate (%) ST3 (ST3; acceptor 2.0 mM) | Relative rate (%) ST3O (ST3O; acceptor 0.2 mM) | Relative rate (%) ST3N (ST3N; acceptor 0.2 mM) | Relative rate (%) ST3 (ST3; acceptor 0.2 mM) | other results
CC(=O)N[C@H]1[C@H](O[C@H]2[C@@H](O)[C@@H](CO)O[C@@H](O[C@H]3[C@H](O)[C@@H](O)C(O)O[C@@H]3CO)[C@@H]2O)O[C@H](CO)[C@@H](O)[C@@H]1O[C@@H]1O[C@H](CO)[C@H](O)[C@H](O)[C@H]1O (stereo partly drawn) [LNT, lacto-N-tetrose] | 3% | 2.3% | 0.5% | 100% | 0% | Relative activity (%) Rat (rat ST3N): 100%; Relative Activity (%) Human (human ST3N): 100%; Relative rate (%) ST3N (ST3N; acceptor 2.0 mM): 100%
CC(=O)N[C@H]1[C@H](O[C@H]2[C@@H](O)[C@@H](CO)O[C@@H](O[C@H]3[C@H](O)[C@@H](O)C(O)O[C@@H]3CO)[C@@H]2O)O[C@H](CO)[C@@H](O[C@@H]2O[C@H](CO)[C@H](O)[C@H](O)[C@H]2O)[C@@H]1O (stereo partly drawn) [LNnT, Galβ1,4GlcNAcβ1,3Galβ1,4Glc] | 0.5% | 49% | 0% | 4% | 24% | Relative activity (%) Rat (rat ST3N): 4%; Relative Activity (%) Human (human ST3N): 5%; Relative rate (%) ST3N (ST3N; acceptor 2.0 mM): 18%

— patent US5858751A, “Compositions and methods for producing sialyltransferases” (The Regents of the University of California, priority 1995, dated 1999)
